{"source": "paper PMC4849045", "about": "“Hepatoprotective Limonoids from Andiroba (Carapa guianensis)” (International Journal of Molecular Sciences, 2016)", "key": {"[1]": {"test_system": "D-GalN/LPS-induced liver injury in mice", "design": "method as in PMID 24697904", "conditions": "p.o., cited from earlier work; for Mortality: dead/total; for sALT / sAST: mean ± S.E.M."}, "[2]": {"test_system": "primary cultured mouse hepatocytes", "conditions": "cited from earlier work; for Inhibition (%) of D-GalN-induced cytotoxicity: mean ± S.E.M. (n = 4)"}, "[3]": {"test_system": "D-GalN/LPS-induced liver injury in mice", "assay": "D-GalN/LPS-induced liver injury in mice", "format": "in vivo, mouse", "conditions": "p.o.; for Mortality: dead/total; for sALT / sAST: mean ± S.E.M.", "protocol": "Male ddY mice (Kiwa Laboratory Animal Co., Ltd., Wakayama, Japan) were housed at a constant temperature of 23 ± 2°C and were fed a standard laboratory chow (MF, Oriental Yeast Co., Ltd., Tokyo, Japan). The animals were fasted for 24 h prior to the beginning of the experiment but were allowed free access to tap water. All experiments were performed with conscious mice unless otherwise noted. The experimental protocol was approved by the Experimental Animal Research Committee of Kindai University (KAPR-26-001, 1 April 2014).\nThe method described by Tiegs et al. was modified and used for this study. Curcumin [36] and silybin were used as reference compounds."}, "L929 cells [4]": {"test_system": "L929 cells", "design": "method as in PMID 24697904", "conditions": "cited from earlier work; for Inhibition (%) of TNF-α-induced cytotoxicity: mean ± S.E.M. (n = 4)"}, "[5]": {"test_system": "LPS-activated NO production in mouse peritoneal macrophages", "conditions": "cited from earlier work; for Inhibition (%) of LPS-activated NO production: mean ± S.E.M. (n = 4)"}, "[6]": {"test_system": "mouse peritoneal macrophages", "conditions": "mean ± S.E.M. (n = 4), cited from earlier work"}, "L929 cells [7]": {"test_system": "L929 cells", "assay": "TNF-α-induced cytotoxicity in L929 cells (MTT assay)", "format": "cell-based", "conditions": "Mus musculus, L929, 44 h", "protocol": "The effects of the limonoids (1–17) on the sensitivity of hepatocytes to TNF-α were assessed by measuring TNF-α-induced decreases in the viability of L929 cells, a TNF-α-sensitive cell line, by using the MTT assay. In the absence of a test sample, the cells incubated with 1 ng/mL TNF-α for 44 h were compared with those not incubated with TNF-α.\nAssay for the TNF-α-induced cytotoxicity in L929 cells was performed as described previously. Silybin was used as a reference compound [36]."}, "[8]": {"test_system": "primary cultured mouse hepatocytes", "assay": "D-GalN-induced cytotoxicity in primary cultured mouse hepatocytes (MTT assay)", "conditions": "Hepatocyte, read-out: Inhibition (%) of D-GalN-induced cytotoxicity", "quoted_text": "Assay for the D-GalN-induced cytotoxicity in primary cultured mouse hepatocytes was performed as described previously [33, 35, 36]."}, "[9]": {"conditions": "read-out: Inhibition (%) of TNF-α-induced cytotoxicity"}}, "note": "Where two headings read alike, the source gives them in different places."}
{"smiles": "COc1cc(/C=C/C(=O)CC(=O)/C=C/c2ccc(O)c(OC)c2)ccc1O", "note": "[Curcumin, curcumin]", "values": [{"measurement": "sALT Inhibition (%)", "setting": "[1]; 12.5 mg/kg", "result": 24.0, "unit": "%"}, {"measurement": "sAST Inhibition (%)", "setting": "[1]; 12.5 mg/kg", "result": 21.1, "unit": "%"}, {"measurement": "Mortality", "setting": "[1]; 12.5 mg/kg", "result": "0/10"}, {"measurement": "sALT", "setting": "[1]; 12.5 mg/kg", "result": "5024 ± 1189", "unit": "Karmen Unit"}, {"measurement": "sAST", "setting": "[1]; 12.5 mg/kg", "result": "4770 ± 1218", "unit": "Karmen Unit"}, {"measurement": "sALT Inhibition (%)", "setting": "[1]; 25 mg/kg", "result": 50.9, "unit": "%"}, {"measurement": "sAST Inhibition (%)", "setting": "[1]; 25 mg/kg", "result": 47.8, "unit": "%"}, {"measurement": "Mortality", "setting": "[1]; 25 mg/kg", "result": "0/10"}, {"measurement": "sALT", "setting": "[1]; 25 mg/kg", "result": "3253 ± 981", "unit": "Karmen Unit"}, {"measurement": "sAST", "setting": "[1]; 25 mg/kg", "result": "3177 ± 979", "unit": "Karmen Unit"}, {"measurement": "sALT Inhibition (%)", "setting": "[1]; 50 mg/kg", "result": 71.2, "unit": "%"}, {"measurement": "sAST Inhibition (%)", "setting": "[1]; 50 mg/kg", "result": 63.8, "unit": "%"}, {"measurement": "Mortality", "setting": "[1]; 50 mg/kg", "result": "1/10"}, {"measurement": "sALT", "setting": "[1]; 50 mg/kg", "result": "1916 ± 483", "unit": "Karmen Unit"}, {"measurement": "sAST", "setting": "[1]; 50 mg/kg", "result": "2220 ± 563", "unit": "Karmen Unit"}, {"measurement": "Inhibition (%) of D-GalN-induced cytotoxicity", "setting": "[2]; 3 µM", "result": "0.1 ± 3.8", "unit": "%"}, {"measurement": "Inhibition (%) of D-GalN-induced cytotoxicity", "setting": "[2]; 10 µM", "result": "1.1 ± 2.2", "unit": "%"}, {"measurement": "Inhibition (%) of D-GalN-induced cytotoxicity", "setting": "[2]; 30 µM", "result": "−17.7 ± 1.3", "unit": "%"}, {"measurement": "Inhibition (%) of D-GalN-induced cytotoxicity", "setting": "[2]; 100 µM", "result": "−44.3 ± 0.3", "unit": "%"}, {"measurement": "Reduction of D-GalN-induced cytotoxicity (in words)", "setting": "[2]; concentrations of up to 100 μM", "result": "did not reduce D-GalN-induced cytotoxicity"}]}
{"smiles": "COc1cc(C2Oc3cc([C@H]4Oc5cc(O)cc(O)c5C(=O)[C@@H]4O)ccc3OC2CO)ccc1O", "note": "(stereo partly drawn) [Silybin, silybin]", "values": [{"measurement": "sALT Inhibition (%)", "setting": "[3]; 500 mg/kg", "result": 71.9, "unit": "%"}, {"measurement": "sAST Inhibition (%)", "setting": "[3]; 500 mg/kg", "result": 71.1, "unit": "%"}, {"measurement": "Mortality", "setting": "[3]; 500 mg/kg", "result": "0/8"}, {"measurement": "sALT", "setting": "[3]; 500 mg/kg", "result": "1990 ± 439", "unit": "Karmen Unit"}, {"measurement": "sAST", "setting": "[3]; 500 mg/kg", "result": "1361 ± 191", "unit": "Karmen Unit"}, {"measurement": "Inhibition (%) of TNF-α-induced cytotoxicity", "setting": "L929 cells [4]; 3 µM", "result": "5.3 ± 2.8", "unit": "%"}, {"measurement": "Inhibition (%) of TNF-α-induced cytotoxicity", "setting": "L929 cells [4]; 10 µM", "result": "22.0 ± 3.8", "unit": "%"}, {"measurement": "Inhibition (%) of TNF-α-induced cytotoxicity", "setting": "L929 cells [4]; 30 µM", "result": "48.0 ± 4.1", "unit": "%"}, {"measurement": "Inhibition (%) of TNF-α-induced cytotoxicity", "setting": "L929 cells [4]; 100 µM", "result": "50.8 ± 3.9", "unit": "%"}, {"measurement": "IC50", "setting": "L929 cells [4]; L929 cells, read-out: IC50, inhibition of TNF-α-induced decrease in cell viability", "result": 37.2, "unit": "µM"}, {"measurement": "Inhibition (%) of D-GalN-induced cytotoxicity", "setting": "[2]; 3 µM", "result": "4.8 ± 1.1", "unit": "%"}, {"measurement": "Inhibition (%) of D-GalN-induced cytotoxicity", "setting": "[2]; 10 µM", "result": "7.7 ± 0.7", "unit": "%"}, {"measurement": "Inhibition (%) of D-GalN-induced cytotoxicity", "setting": "[2]; 30 µM", "result": "45.2 ± 8.8", "unit": "%"}, {"measurement": "Inhibition (%) of D-GalN-induced cytotoxicity", "setting": "[2]; 100 µM", "result": "77.0 ± 5.5", "unit": "%"}, {"measurement": "IC50", "setting": "[2]; primary mouse hepatocytes, read-out: IC50, inhibition of D-GalN-induced cytotoxicity", "result": 38.8, "unit": "µM"}]}
{"smiles": "CC1(C)C(=O)C=C[C@@]2(C)C1CC(=O)[C@]1(C)C2CC[C@@]2(C)[C@H](c3ccoc3)OC(=O)[C@H]3O[C@]321", "note": "(stereo partly drawn) [compound 3, 7-deacetoxy-7-oxogedunin]", "values": [{"measurement": "sALT Inhibition (%)", "setting": "[3]; 25 mg/kg", "result": 66.3, "unit": "%"}, {"measurement": "sAST Inhibition (%)", "setting": "[3]; 25 mg/kg", "result": 60.3, "unit": "%"}, {"measurement": "Mortality", "setting": "[3]; 25 mg/kg", "result": "0/7"}, {"measurement": "sALT", "setting": "[3]; 25 mg/kg", "result": "2899 ± 1024", "unit": "Karmen Unit"}, {"measurement": "sAST", "setting": "[3]; 25 mg/kg", "result": "2093 ± 742", "unit": "Karmen Unit"}, {"measurement": "sALT Inhibition (%)", "setting": "[3]; 50 mg/kg", "result": 70.2, "unit": "%"}, {"measurement": "sAST Inhibition (%)", "setting": "[3]; 50 mg/kg", "result": 66.7, "unit": "%"}, {"measurement": "Mortality", "setting": "[3]; 50 mg/kg", "result": "1/7"}, {"measurement": "sALT", "setting": "[3]; 50 mg/kg", "result": "2572 ± 903", "unit": "Karmen Unit"}, {"measurement": "sAST", "setting": "[3]; 50 mg/kg", "result": "1759 ± 579", "unit": "Karmen Unit"}, {"measurement": "Inhibition (%) of LPS-activated NO production", "setting": "[5]; 3 µM", "result": "7.4 ± 5.2", "unit": "%"}, {"measurement": "Inhibition (%) of LPS-activated NO production", "setting": "[5]; 10 µM", "result": "40.9 ± 4.7", "unit": "%"}, {"measurement": "Inhibition (%) of LPS-activated NO production", "setting": "[5]; 30 µM", "result": "94.0 ± 0.8", "unit": "%"}, {"measurement": "Inhibition (%) of LPS-activated NO production", "setting": "[5]; 100 µM", "result": "88.1 ± 2.1", "unit": "%"}, {"measurement": "IC50", "setting": "[5]; mouse peritoneal macrophages, read-out: IC50, inhibition of LPS-activated NO production", "result": 12.8, "unit": "µM"}, {"measurement": "cell viability (%) in MTT assay (values in parentheses)", "setting": "[6]; 3 µM", "result": "100.3 ± 3.9", "unit": "%"}, {"measurement": "cell viability (%) in MTT assay (values in parentheses)", "setting": "[6]; 10 µM", "result": "98.9 ± 3.2", "unit": "%"}, {"measurement": "cell viability (%) in MTT assay (values in parentheses)", "setting": "[6]; 30 µM", "result": "98.8 ± 7.4", "unit": "%"}, {"measurement": "cell viability (%) in MTT assay (values in parentheses)", "setting": "[6]; 100 µM, # = cytotoxic effects were observed", "result": "83.7 ± 1.2", "unit": "%"}, {"measurement": "IC50", "setting": "L929 cells [7]; read-out: IC50, inhibition of TNF-α-induced decrease in cell viability", "result": 7.3, "unit": "µM"}, {"measurement": "inhibition at 1 µM", "setting": "L929 cells [7]; [9]", "result": "5.8 ± 1.5", "unit": "%"}, {"measurement": "inhibition at 3 µM", "setting": "L929 cells [7]; [9]", "result": "26.7 ± 4.5", "unit": "%"}, {"measurement": "inhibition at 10 µM", "setting": "L929 cells [7]; [9]", "result": "58.6 ± 7.2", "unit": "%"}, {"measurement": "inhibition at 30 µM", "setting": "L929 cells [7]; [9]", "result": "68.7 ± 4.8", "unit": "%"}, {"measurement": "inhibition at 3 µM", "setting": "[8]", "result": "-4.6 ± 0.5", "unit": "%"}, {"measurement": "inhibition at 10 µM", "setting": "[8]", "result": "-8.2 ± 0.9", "unit": "%"}, {"measurement": "inhibition at 30 µM", "setting": "[8]", "result": "-8.3 ± 1.1", "unit": "%"}, {"measurement": "inhibition at 100 µM", "setting": "[8]", "result": "-8.9 ± 0.6", "unit": "%"}]}
